Test results as given in ChEMBL document CHEMBL3044555, “Metabolism of thymol and trans-anethole in larvae of Spodoptera litura and Trichoplusia ni (Lepidoptera: Noctuidae)” (J Agric Food Chem, 2004).

Key:
[1] = Drug excretion in 80 last instar Trichoplusia ni (cabbage looper) larvae feces assessed as unchanged parent compound at 0.1 % fwt, po measured after 3 days by 1H/13C NMR analysis; assay type: ADME, organism-based; details: in vivo, 72 h
[2] = Drug excretion in 80 last instar Trichoplusia ni (cabbage looper) larvae feces assessed as side chain methyl group hydroxylated compound on at 0.1 % fwt, po by 1H/13C NMR analysis; assay type: ADME, organism-based; details: in vivo
[3] = Drug excretion in 80 last instar Trichoplusia ni (cabbage looper) larvae feces assessed as side chain methyl group hydroxylated compound on at 0.1 % fwt, po by TLC analysis; assay type: ADME, organism-based; details: in vivo
[4] = Drug excretion in 80 last instar Spodoptera litura larvae feces assessed as side chain methyl group hydroxylated compound on at 0.1 % fwt, po by TLC analysis; assay type: ADME, organism-based; details: in vivo
[5] = Drug excretion in 80 last instar Trichoplusia ni (cabbage looper) larvae feces assessed as thymol 3-O-beta-glucoside at 0.1 % fwt, po measured after 3 days by 1H/13C NMR analysis; assay type: ADME, organism-based; details: in vivo, 72 h
[6] = Drug excretion in 80 last instar Spodoptera litura larvae feces assessed as thymol 3-O-beta-glucoside at 0.1 % fwt, po measured after 3 days by 1H/13C NMR analysis; assay type: ADME, organism-based; details: in vivo, 72 h
[7] = Drug excretion in 30 last instar Trichoplusia ni (cabbage looper) larvae feces assessed as thymol 3-O-beta-glucoside at 100 ug administered topically on abdominal terga by TLC analysis; assay type: ADME; details: in vivo, topical_or_ocular
[8] = Drug excretion in 80 last instar Spodoptera litura larvae feces assessed as thymol 3-O-beta-glucoside at 0.1 % fwt, po measured after 3 days by TLC analysis; assay type: ADME, organism-based; details: in vivo, 72 h
[9] = Drug excretion in 80 last instar Trichoplusia ni (cabbage looper) larvae feces assessed as thymol 3-O-beta-glucoside at 0.1 % fwt, po measured after 3 days by TLC analysis; assay type: ADME, organism-based; details: in vivo, 72 h
[10] = Drug excretion in 80 last instar Spodoptera litura larvae feces assessed as unchanged parent compound at 0.1 % fwt, po measured after 3 days by 1H/13C analysis; assay type: ADME, organism-based; details: in vivo, 72 h

SMILES	Drug excretion [1]	Drug excretion [2]	Drug excretion [3]	Drug excretion [4]	Drug excretion [5]	Drug excretion [6]	Drug excretion [7]	Drug excretion [8]	Drug excretion [9]	Drug excretion [10]
C/C=C/c1ccc(OC)cc1 [ANETHOLE]	Not Active	Active	5.8 mg	5.8 mg	–	–	–	–	–	–
Cc1ccc(C(C)C)c(O)c1 [THYMOL]	Active	–	–	–	Active	Active	Active	3.2 mg	3.2 mg	Active
